Converted amounts (≈) assume the structure as drawn.
Legend:
Type in all cases: cell-based
[1] = test system: Staphylococcus aureus NRS384 (MRSA); experiment: Broth microdilution MIC, S. aureus NRS384 (MRSA); conditions: Staphylococcus aureus; broth microdilution, 37° C., 20 hours; read-out: MIC NRS 384 (MRSA)
In short: (§1)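 Broth microdilution in strain-specific test medium with ~5.0×10^5 cfu/ml inoculum, 1% DMSO and two-fold compound dilutions from 64 to 0.0625 μg/ml. Plates were held 20 hours at 37° C in ambient air. S. pneumoniae colonies were grown beforehand on blood agar in 5% CO2.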

[2] = test system: Staphylococcus aureus ATCC 29213 (MSSA); experiment: Broth microdilution MIC, S. aureus ATCC 29213 (MSSA); conditions: broth microdilution, 37° C., 20 hours, read-out: MIC S. aureus ATCC 29213 (MSSA)
In short: as §1

[3] = test system: Enterococcus faecalis ATCC 29212; experiment: Broth microdilution MIC, E. faecalis ATCC 29212; conditions: ATCC29212, broth microdilution, 37° C., 20 hours, read-out: MIC E. faecalis ATCC 29212
In short: as §1

[4] = test system: Enterococcus faecium ATCC 700221 (VRE); experiment: Broth microdilution MIC, E. faecium ATCC 700221 (VRE); conditions: Enterococcus faecium; broth microdilution, 37° C., 20 hours; read-out: MIC E. faecium ATCC 700221 (VRE)
In short: as §1

[5] = test system: Bacillus subtilis ATCC 6633; experiment: Broth microdilution MIC, B. subtilis ATCC 6633; conditions: ATCC6633, broth microdilution, 37° C., 20 hours, read-out: MIC B. subtilis ATCC 6633
In short: as §1

[6] = test system: Escherichia coli ATCC 25922; experiment: Broth microdilution MIC, E. coli ATCC 25922 (MHIIB w & w/o 4 mM EDTA); conditions: broth microdilution, 37° C., 20 hours; for MIC: Escherichia coli, ATCC25922, without EDTA, read-out: MIC E. coli ATCC 25922; for MIC E. coli ATCC 25922 + 4 mM EDTA: with 4 mM EDTA
In short: as §1

[7] = test system: Streptococcus pneumoniae ATCC 49619; experiment: Broth microdilution MIC, S. pneumoniae ATCC 49619; conditions: ATCC49619, broth microdilution, 37° C., 20 hours, read-out: MIC S. pneumoniae ATCC 49619
In short: as §1

SMILES | MIC [1] | MIC [2] | MIC [3] | MIC [4] | MIC [5] | MIC [6] | MIC E. coli ATCC 25922 + 4 mM EDTA [6] | MIC [7]
NS(=O)(=O)CCn1ncc2nc(NCc3ccc(Cl)c(Cl)c3)[nH]c(=O)c21 [Compound 237, 2-(5-((3,4-dichlorobenzyl)amino)-7-oxo-6,7-dihydro-1H-pyrazolo[4,3-d]pyrimidin-1-yl)ethanesulfonamide] | 32 µg/mL (≈ 76.7 µM) | 32 µg/mL (≈ 76.7 µM) | 32 µg/mL (≈ 76.7 µM) | 16 µg/mL (≈ 38.3 µM) | 16 µg/mL (≈ 38.3 µM) | > 64 µg/mL | 64 µg/mL | 4 µg/mL (≈ 9.59 µM)
O=C(O)CCn1cc2nc(NCc3ccc(Cl)c(Cl)c3)[nH]c(=O)c2n1 [Compound 230, 3-(5-((3,4-Dichlorobenzyl)amino)-7-oxo-6,7-dihydro-2H-pyrazolo[4,3-d]pyrimidin-2-yl)propanoic acid] | 64 µg/mL (≈ 167 µM) | > 64 µg/mL | 64 µg/mL (≈ 167 µM) | 64 µg/mL (≈ 167 µM) | 64 µg/mL (≈ 167 µM) | > 64 µg/mL | 64 µg/mL | 32 µg/mL (≈ 83.7 µM)
Cc1noc(C)c1C(=O)N(C)CCn1ncc2nc(NCc3ccc(Cl)c(Cl)c3)[nH]c(=O)c21 [Compound 80, N-(2-(5-((3,4-dichlorobenzyl)amino)-7-oxo-6,7-dihydro-1H-pyrazolo[4,3-d]pyrimidin-1-yl)ethyl)-N,3,5-trimethylisoxazole-4-carboxamide] | 32 µg/mL (≈ 65.3 µM) | 32 µg/mL (≈ 65.3 µM) | 32 µg/mL (≈ 65.3 µM) | 16 µg/mL (≈ 32.6 µM) | 16 µg/mL (≈ 32.6 µM) | > 64 µg/mL | 64 µg/mL | 8 µg/mL (≈ 16.3 µM)
Cl.O=c1[nH]c(NCc2ccc(Cl)c(Cl)c2)nc2cnn(CCOCCN3CCOCC3)c12 [Compound 160, 5-((3,4-dichlorobenzyl)amino)-1-(2-(2-morpholinoethoxy)ethyl)-1H-pyrazolo[4,3-d]pyrimidin-7(6H)-one hydrochloride] | 16 µg/mL | 16 µg/mL | 16 µg/mL | 8 µg/mL | 4 µg/mL | > 64 µg/mL | 64 µg/mL | 4 µg/mL
Cl.O=c1[nH]c(NCc2ccc(Cl)c(Cl)c2)nc2cnn(CCc3nnc(CO)o3)c12 [Compound 234, 5-((3,4-dichlorobenzyl)amino)-1-(2-(5-(hydroxymethyl)-1,3,4-oxadiazol-2-yl)ethyl)-1H-pyrazolo[4,3-d]pyrimidin-7(6H)-one hydrochloride] | 64 µg/mL | 64 µg/mL | 32 µg/mL | 8 µg/mL | 16 µg/mL | > 64 µg/mL | >64 µg/mL | 16 µg/mL
O=c1[nH]c(NCc2ccc(Cl)c(Cl)c2)nc2cnn(CCOC3CCS(=O)(=O)CC3)c12 [Compound 188, 5-((3,4-dichlorobenzyl)amino)-1-(2-((1,1-dioxidotetrahydro-2H-thiopyran-4-yl)oxy)ethyl)-1H-pyrazolo[4,3-d]pyrimidin-7(6H)-one] | 16 µg/mL (≈ 32.9 µM) | 16 µg/mL (≈ 32.9 µM) | 8 µg/mL (≈ 16.4 µM) | 4 µg/mL (≈ 8.22 µM) | 4 µg/mL (≈ 8.22 µM) | > 64 µg/mL | >64 µg/mL | 8 µg/mL (≈ 16.4 µM)
Cl.O=C(O)C1CC(n2ncc3nc(NCc4ccc(Cl)c(Cl)c4)[nH]c(=O)c32)CN1C(=O)c1ccncc1 (stereo not shown) [Compound 150, 4-(5-((3,4-dichlorobenzyl)amino)-7-oxo-6,7-dihydro-1H-pyrazolo[4,3-d]pyrimidin-1-yl)-1-isonicotinoylpyrrolidine-2-carboxylic acid hydrochloride] | > 64 µg/mL | > 64 µg/mL | > 64 µg/mL | > 64 µg/mL | > 64 µg/mL | > 64 µg/mL | >64 µg/mL | > 64 µg/mL
CC(CO)n1ncc2nc(NCc3ccc(Cl)c(Cl)c3)[nH]c(=O)c21 (stereo not shown) [Compound 228, 5-((3,4-dichlorobenzyl)amino)-1-(1-hydroxypropan-2-yl)-1H-pyrazolo[4,3-d]pyrimidin-7(6H)-one] | 8 µg/mL (≈ 21.7 µM) | 16 µg/mL (≈ 43.5 µM) | 16 µg/mL (≈ 43.5 µM) | 8 µg/mL (≈ 21.7 µM) | 4 µg/mL (≈ 10.9 µM) | > 64 µg/mL | 64 µg/mL | 8 µg/mL (≈ 21.7 µM)

Source: patent publication US10723741B1, “DNA polymerase IIIC inhibitors and use thereof” (Acurx Pharmaceuticals, LLC, priority 2018, dated 2020)
